Measurements reported in patent US20240308995A1, “O-GLYCOPROTEIN-2-ACETAMIDO-2-DEOXY-3-D-GLUCOPYRANOSIDASE INHIBITORS” (BIOGEN MA INC., priority 2018, published 2024).

Experiments:
[1] = molecular target: Recombinant full length human OGA enzyme (Homo sapiens (Human), UniProt O60502); test: OGA Enzyme Inhibition Biochemical Assay; conditions: 1 nM OGA, 100 μM 4-MUGlcNAc, pH 6.4
In short: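 Full-length recombinant human OGA with fluorogenic 4-MUGlcNAc in McIlvaine buffer pH 6.4, 0.01% BSA; 90 min at room temperature, glycine pH 10 quench, fluorescence Ex 355/Em 460 nm. 10-point, 4-fold dilution from 20 μM; 4-parameter variable-slope fit.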

[2] = molecular target: OGA (S400 O-GLCNAC), HEK-293T cells transfected with Tau-V5 (Homo sapiens (Human), UniProt O60502); test: Cellular OGA-Tau MSD Assay; type: cell-based; conditions: HEK-293T cells, Tau-S400-GlcNAc MSD readout
In short: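 HEK-293T cells transfected with OGA and Tau-V5 plasmids were treated overnight at 37° C with a 10-point, 3-fold titration from 1 uM. Lysates went onto V5-antibody MSD plates to capture Tau, probed with a Tau O-GlcNAc antibody and read by electrochemiluminescence; IC50 from a 4-parameter fit.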

[3] = tested on: P-gp (MDR1); test: MDR1-MDCK Efflux Ratio Assay; type: in vitro ADME; conditions: dog, MDCK-MDR1, pH 7.4, MDR1-MDCK cells, 2 hr, pH 7.4; read-out: MDR1-MDCK Efflux Ratio (B-A/A-B)
In short: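 Bidirectional (apical↔basolateral) transport across confluent MDR1-MDCK monolayers in HBSS/10 mM HEPES pH 7.4, receiver buffer with 1% BSA; 2 hr at 37° C, 5% CO2. Donor sampled at 0 and 120 min, receiver at 120 min, quantified by LC-MS/MS in triplicate. Papp, efflux ratio and percent recovery calculated.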

[4] = Rat Liver Microsome Stability Assay; type: in vitro ADME; conditions: rat liver microsomes, 1 uM compound

Sequence of OGA (S400 O-GLCNAC), HEK-293T cells transfected with Tau-V5 (O60502 whole entry): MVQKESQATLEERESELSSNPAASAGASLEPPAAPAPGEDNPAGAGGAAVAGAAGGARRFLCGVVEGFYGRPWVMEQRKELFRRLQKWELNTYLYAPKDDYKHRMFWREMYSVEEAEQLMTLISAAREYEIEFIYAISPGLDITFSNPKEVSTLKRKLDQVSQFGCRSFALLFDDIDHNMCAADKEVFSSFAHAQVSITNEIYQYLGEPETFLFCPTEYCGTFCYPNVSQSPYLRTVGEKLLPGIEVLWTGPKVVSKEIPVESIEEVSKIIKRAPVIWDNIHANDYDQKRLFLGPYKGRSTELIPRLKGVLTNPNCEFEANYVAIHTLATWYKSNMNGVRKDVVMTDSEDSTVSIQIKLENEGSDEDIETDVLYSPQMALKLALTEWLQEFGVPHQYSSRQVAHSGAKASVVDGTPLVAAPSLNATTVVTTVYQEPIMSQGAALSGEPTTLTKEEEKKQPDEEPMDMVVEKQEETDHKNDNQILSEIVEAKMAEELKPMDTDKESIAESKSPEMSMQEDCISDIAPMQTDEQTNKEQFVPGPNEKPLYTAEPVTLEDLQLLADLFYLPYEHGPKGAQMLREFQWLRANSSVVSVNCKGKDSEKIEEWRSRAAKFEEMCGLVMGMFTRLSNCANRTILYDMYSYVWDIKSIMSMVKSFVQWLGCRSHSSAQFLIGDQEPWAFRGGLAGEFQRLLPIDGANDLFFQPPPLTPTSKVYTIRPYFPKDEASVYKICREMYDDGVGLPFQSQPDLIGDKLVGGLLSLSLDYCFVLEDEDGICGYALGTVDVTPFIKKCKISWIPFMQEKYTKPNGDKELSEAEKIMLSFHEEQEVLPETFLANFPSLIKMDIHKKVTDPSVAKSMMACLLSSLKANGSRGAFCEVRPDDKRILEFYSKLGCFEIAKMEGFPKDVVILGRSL
Sequence of Recombinant full length human OGA enzyme (O60502 whole entry): as above

Row | Compound | IC50 [1] | IC50 [2] | efflux ratio at 2 h [3] | RLM % Qh (%) [4]
1 | CC(=O)Nc1ncc(CN2C[C@H](Oc3cc(OC4CCCC4)ncn3)C[C@@H]2C)s1 [Example 1-138, N-(5-(((2S,4R)-4-((6-(cyclopentyloxy)pyrimidin-4-yl)oxy)-2-methylpyrrolidin-1-yl)methyl)thiazol-2-yl)acetamide] | < 1 nM | 28 nM | 2.6 | 87%
2 | CC(=O)Nc1ncc(CN2C[C@H](Oc3ccc(F)nc3)C[C@@H]2C)s1 [Example 1-115, N-(5-(((2S,4R)-4-((6-fluoropyridin-3-yl)oxy)-2-methylpyrrolidin-1-yl)methyl)thiazol-2-yl)acetamide] | < 1 nM | 2 nM | 4.7 | 54%
3 | CC(=O)Nc1nc(F)c(CN2C[C@H](Oc3cncnc3)C[C@@H]2C)s1 [Example 1-119, N-(4-fluoro-5-(((2S,4R)-2-methyl-4-(pyrimidin-5-yloxy)pyrrolidin-1-yl)methyl)thiazol-2-yl)acetamide] | 1.3 nM | 19 nM | 6.3 | 50%
4 | CCOc1cc(O[C@@H]2C[C@H](C)N(Cc3cnc(NC(C)=O)s3)C2)ncn1 [Example 1-126, N-(5-(((2S,4R)-4-((6-ethoxypyrimidin-4-yl)oxy)-2-methylpyrrolidin-1-yl)methyl)thiazol-2-yl)acetamide] | < 1 nM | 2 nM | 3.8 | 48%
5 | CC(=O)Nc1nc(F)c(CN2C[C@H](Oc3cc(N4CCOCC4)ncn3)C[C@@H]2C)s1 [Example 1-103, N-(4-fluoro-5-(((2S,4R)-2-methyl-4-((6-morpholinopyrimidin-4-yl)oxy)pyrrolidin-1-yl)methyl)thiazol-2-yl)acetamide] | < 1 nM | 3 nM | 15.9 | 45%
6 | CC(=O)Nc1nc(F)c(CN2C[C@H](Oc3cnc(N4CCOCC4)cn3)C[C@@H]2C)s1 [Example 1-142, N-(4-fluoro-5-(((2S,4R)-2-methyl-4-((5-morpholinopyrazin-2-yl)oxy)pyrrolidin-1-yl)methyl)thiazol-2-yl)acetamide] | < 1 nM | 2 nM | 8.3 | 59%
7 | COc1ccc(O[C@@H]2C[C@H](C)N(Cc3sc(NC(C)=O)nc3F)C2)nc1 [Example 1-98, N-(4-fluoro-5-(((2S,4R)-4-((5-methoxypyridin-2-yl)oxy)-2-methylpyrrolidin-1-yl)methyl)thiazol-2-yl)acetamide] | < 1 nM | 1 nM | 2.1 | 93%
8 | CC(=O)Nc1ncc(CN2C[C@H](Oc3cc(N4CCOCC4)ncn3)C[C@@H]2C)s1 [Example 1-130, N-(5-(((2S,4R)-2-methyl-4-((6-morpholinopyrimidin-4-yl)oxy)pyrrolidin-1-yl)methyl)thiazol-2-yl)acetamide] | < 1 nM | 3 nM | 30.3 | 37%
9 | CC(=O)Nc1ncc(CN2C[C@H](Oc3ccnc(C)n3)C[C@@H]2C)s1 [Example 1-104, N-(5-(((2S,4R)-2-methyl-4-((2-methylpyrimidin-4-yl)oxy)pyrrolidin-1-yl)methyl)thiazol-2-yl)acetamide] | < 1 nM | 2 nM | 16 | 30%
10 | CC(=O)Nc1ncc(CN2C[C@@H](Oc3cc(C)nc(C)c3)C[C@@H]2C)s1 [Example 1-62, N-(5-(((2S,4S)-4-((2,6-dimethylpyridin-4-yl)oxy)-2-methylpyrrolidin-1-yl)methyl)thiazol-2-yl)acetamide] | 26 nM | 89 nM | 65 | 32%
